Test results: patent publication US12241058B2, “Recombinant microbial system for directed evolution of glycocins and method of preparation thereof” (COUNCIL OF SCIENTIFIC & INDUSTRIAL RESEARCH, priority 2018, dated 2025)

Columns and labels:
[1] = test system: L. monocytogenes EGD-e; test: Agar diffusion test (ADT) of cell lysates, zone of growth inhibition, with PAS staining for glycosylation; assay type: cell-based, Listeria monocytogenes; details: ADT against L. monocytogenes, cleavage buffer treated cell lysate, glycosylation by PAS staining
[2] = test system: HepG2 cells; test: Anti-cancer MTT reduction assay; assay type: cell-based; details: 50% cell (cancerous) death, HepG2 cells, MTT, 18-24 hours
Protocol: (§1) Cytotoxicity of Enterocin 96 and its variants (neo-glycocins) against THP-1 cells and anti-cancer potential against HepG2 cells was measured by the conventional MTT reduction assay. HepG2 and THP-1 cells (1×10^4 cells/well) were seeded into the 96-well plate and cultured at 37° C. in an atmosphere of 5% CO2 to allow them to adhere overnight. After 24 hours, the cells were exposed to Enterocin 96 and its variants (neo-glycocins) at various concentrations (75-1000 μM) for 18-24 hours. After the incubation period, 150 μl media and the suspended cells were discarded and washed with 200 μl PBS. After that, 200 μl of fresh media was added followed by 20 μl of MTT (5 mg/mL) into each well in the 96-well plate and incubated for 4 h in CO2 incubator. One hundred and fifty microlitres of medium with MTT was removed from every well and 100 μl DMSO was added to each well to solubilize the formazan crystal by incubating for 20 min in CO2 incubator. Finally, the plates were read at 570 nm by using Multiskan Go plate-reader (Thermo Scientific) and then percentage of cell viability was determined.

[3] = test system: L. monocytogenes; test: Determination of the MIC against L. monocytogenes (96-well broth dilution); assay type: cell-based, Listeria monocytogenes; details: Minimum Inhibitory Concentration against L. monocytogenes, 18 h at 37° C.
Protocol: One colony of an indicator strain (L. monocytogenes) was picked from an NB agar plate, inoculated to liquid NB medium and grown at 37° C., in a shaking incubator until OD^600 nm of 0.5 was reached. Then, the culture was diluted with NB medium and serial twofold dilutions with NB medium were made. Hundred microliters of Enterocin 96 solution (1 mg/ml in MQ) were transferred to a 96-well plate and mixed with 100 μl previously prepared cell suspension of sensitive strain. Similarly, positive control Nisin (1 mg/ml in MQ, Sigma Cat. # N5764), 100 μl mixture of NB medium with the Listeria, and negative controls (media alone, untreated indicator strain). 100 μL mixture of NB medium were prepared and dispersed in the same 96-well plates. The plate was incubated for 18 h at 37° C. in a shaking incubator. After incubation, the growth of bacteria was evaluated visually and by a plate reader. The analyses were performed in triplicate. Similarly, MIC of other variants of Enterocin 96 (neo-glycocins) was determined using above described method.

[4] = test system: human red blood cells; test: Hemolytic assay; assay type: cell-based
Protocol: Samples were prepared within 3 h of performing the assay. Neo-glycocins stock solutions of 1 mg/ml were prepared by dissolving the neo-glycocins in PBS (10 mM phosphate buffer, pH 7.4); the samples were mixed by inversion to ensure neo-glycocins were completely dissolved in PBS. To prepare the Human Red Blood Cell (hRBC) solution, blood was collected from healthy individual and RBCs were isolated following standard procedure. Informed consent was acquired from all donors and this work was carried out in compliance with the ethical committee guidelines of CSIR-IMTECH with IEC NO SUIEC/14/03.
2 ml whole blood from healthy individual was centrifuged for 30 mins at 1000 rpm(4° C.). Layer of RBCs was collected and diluted with equal volume of 1×PBS and mixture was centrifuged three times for 10 mins at 1000 rpm, 4° C. To prepare 4% RBC solution, 1 ml of RBC were mixed with 24 ml 1×PBS. To examine the hemolysis property of neo-glycocins (75-1000 μM), 20 μl of freshly prepared neo-glycocins solution was mixed with 180 μl of freshly prepared hRBC solution and was placed at 37° C. for 1 h. A total of 20 μl of PBS buffer only and 20 μl of Triton X-100 1% (w/v) were mixed with 180 μl of hRBC solution as negative and positive controls, respectively. After 1 h of incubation, all samples were centrifuged at 2500 rpm for 10 min. A total of 100 μl of supernatant was collected, and the release of hemoglobin was monitored by measuring the absorbance of the supernatant at 570 nm with a Multiskan Go plate-reader (Thermo Scientific). Hemolysis percentage for each sample was calculated by dividing sample's absorbance on positive control absorbance (complete hemolysis) multiplied by 100.

[5] = test system: THP-1 cells; test: Cytotoxicity MTT reduction assay; assay type: cell-based; details: 50% cell death, THP-1 cells, MTT, 18-24 hours
Protocol: as §1

SEQ ID NO: 43: variant of Enterocin 96: MASKRDCNLMKACCAGQAVTYAIQSLLNRLGGDSSDPAGCNDIVRKYCK (Variant of Enterocin 96)
Zone of inhibition as well as glycosylation positive [1]: positive | Zone of inhibition as well as glycosylation positive ([1]; listed as H24Q): Yes

SEQ ID NO: 44: variant of Enterocin 96: MASKRDCNLMKARCAGQAVTYAIHSLLNRLGGDSSDPAGCNDIVRKYCK (Variant of Enterocin 96)
Zone of inhibition as well as glycosylation positive [1]: positive | Zone of inhibition as well as glycosylation positive ([1]; listed as C13R): Yes

SEQ ID NO: 46: variant of Enterocin 96: MASKRDCNLMKACCAEQAVTYAIHSLLNRLGGDSSDPAGCNDIVRKYCK (Variant of Enterocin 96)
Zone of inhibition as well as glycosylation positive [1]: positive

SEQ ID NO: 47: variant of Enterocin 96: MASKRDCNLMKACCAGQAVTYAIHSLLNRLGGDSSVPAGCNDIVRKYCK (Variant of Enterocin 96)
Zone of inhibition as well as glycosylation positive [1]: positive | Zone of inhibition as well as glycosylation positive ([1]; listed as D36V): Yes

SEQ ID NO: 48: variant of Enterocin 96: MASKRDCNLMKACCAGQAVTYAIHSLLYRLGGDSSDPAGCNDIVRKYCK (Variant of Enterocin 96)
Zone of inhibition as well as glycosylation positive [1]: positive | Zone of inhibition as well as glycosylation positive ([1]; listed as N28Y): Yes

SEQ ID NO: 49: variant of Enterocin 96: MASKRDCNLMKACCAGHAVTYAIHSLLKRLGGDSSDPAGCNDIVRKYCK (Variant of Enterocin 96)
Zone of inhibition as well as glycosylation positive [1]: positive | Zone of inhibition as well as glycosylation positive ([1]; listed as Q17H-N28K): Yes

SEQ ID NO: 50: variant of Enterocin 96: MASKRDCNLMKACCAGQAVTYAIHSLLNRLGGDSSDPAGSNDIVRKYCK (Variant of Enterocin 96)
Zone of inhibition as well as glycosylation positive [1]: positive | Zone of inhibition as well as glycosylation positive ([1]; listed as C40S): Yes

SEQ ID NO: 51: variant of Enterocin 96: MASKHDCNLMKACCAGQAVTYAIHSLLNRLGGDSSDPAGCNDIVRKYCK (Variant of Enterocin 96)
Zone of inhibition as well as glycosylation positive [1]: positive | Zone of inhibition as well as glycosylation positive ([1]; listed as R5H): Yes

SEQ ID NO: 52: variant of Enterocin 96: MASKRDCNLMKACCAGQAVTYGIHSLLNRLGGDSSDPAGCNDIVRKYCK (Variant of Enterocin 96)
Zone of inhibition as well as glycosylation positive [1]: positive | Zone of inhibition as well as glycosylation positive ([1]; listed as A22G): Yes

SEQ ID NO: 53: variant of Enterocin 96: MASKRDCNLMKACCAGLAVTYAIHSLLNRLGGDSSDPAGCNDIVRKYCK (Variant of Enterocin 96)
Zone of inhibition as well as glycosylation positive [1]: positive | Zone of inhibition as well as glycosylation positive ([1]; listed as Q17L): Yes

SEQ ID NO: 54: variant of Enterocin 96: MASKRDCNLMKACCAGQAVTYAIHSLLNRLGGDPSDPAGCNDIVRKYCK (Variant of Enterocin 96)
Zone of inhibition as well as glycosylation positive [1]: neither showed any bioactivity nor glycosylation

SEQ ID NO: 55: variant of Enterocin 96: MASKRDCNLMKACCAGQAVTYAIHSLLNRLGGNSSDPAGCNDIVRKYCK (Variant of Enterocin 96)
Zone of inhibition as well as glycosylation positive [1]: neither showed any bioactivity nor glycosylation

SEQ ID NO: 56: variant of Enterocin 96: MASKRDCNLMKACCAGQAVTYAIHSLLNRLGGDFSDPAGCNDIVRKYCK (Variant of Enterocin 96)
Zone of inhibition as well as glycosylation positive [1]: neither showed any bioactivity nor glycosylation

SEQ ID NO: 57: variant of Enterocin 96: MASKRDCNLMKACCAGQAVTYAIHSLLNRLGGDSSDWRCK (Variant of Enterocin 96)
Zone of inhibition as well as glycosylation positive [1]: neither showed any bioactivity nor glycosylation

SEQ ID NO: 58: variant of Enterocin 96: MASKRDCNLMKACCAGQAVTYAIHSLLNRLGGDSGDPAGCNDIVRKYCK (Variant of Enterocin 96)
Zone of inhibition as well as glycosylation positive [1]: neither showed any bioactivity nor glycosylation

SEQ ID NO: 59: variant of Enterocin 96: MASKRDCNLMKACCAGQAVTYAIHSLLNRLGGDSSEPAGCNDIVRKYCK (Variant of Enterocin 96)
Zone of inhibition as well as glycosylation positive [1]: neither showed any bioactivity nor glycosylation

variant of Enterocin 96: MASKACCAGQAVTYAIHSLLNRLGGDSSDPAGCNDIVRKYCK (Variant of Enteriocin 96) [SEQ ID NO: 41]
IC50 [2]: 167 ± 0.122 µM | Anti-bacterial activity (MIC in μM) [3]: >0.54 µM | Hemolysis (MHC in μM) [4]: 600 µM | Zone of inhibition as well as glycosylation positive [1]: positive | Zone of inhibition as well as glycosylation positive ([1]; listed as ECT): Yes | IC50 [5]: 309.4 ± 0.388 µM

variant of Enterocin 96: MASKRDCNLMKACCAEQAVTYAIQSLLNRLGGDSSDPAGCNDIVRKYCK (Variant of Enterocin 96) [SEQ ID NO: 45]
IC50 [2]: 222.3 ± 0.11 µM | Anti-bacterial activity (MIC in μM) [3]: >0.54 µM | Hemolysis (MHC in μM) [4]: 600 µM | Zone of inhibition as well as glycosylation positive [1]: positive | Zone of inhibition as well as glycosylation positive ([1]; listed as G16E-H24L): Yes | IC50 [5]: 167.3 ± 1.39 µM

variant of Enterocin 96: MASKRDCNLMKACCAGQAVTYAIHSLLNRLGGDSSGPAGCNDIVRKYCK (Variant of Enterocin 96) [SEQ ID NO: 42]
IC50 [2]: 204.2 ± 0.134 µM | Anti-bacterial activity (MIC in μM) [3]: >0.54 µM | Hemolysis (MHC in μM) [4]: 600 µM | Zone of inhibition as well as glycosylation positive [1]: positive | Zone of inhibition as well as glycosylation positive ([1]; listed as D36G): Yes | IC50 [5]: 279.3 ± 0.0769 µM
